Values after ≈ are worked out from the molar mass of the structure shown.
Tests used:
E. coli 25922 = experiment: Antibacterial activity, microbroth dilution MIC (Table 1); type: cell-based, Escherichia coli; conditions: Escherichia coli; microbroth dilution; control Gram-negative E. coli 25922 strain; read-out: MIC, 25922
Summary of the method: (§1)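 In a microbroth dilution test, the minimum inhibitory concentration was defined as the lowest compound level preventing growth seen by eye, and was given in μg/mL.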

[1] = system: Staphylococcus aureus (S. aureus) 29213; experiment: as above; type: cell-based; conditions: microbroth dilution, Gram-positive S. aureus 29213, read-out: MIC, 29213
Summary of the method: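 Using broth microdilution, MIC endpoints (μg/mL) mark where visible growth no longer appears; the panel spans sensitive and control Gram-negative strains plus a Gram-positive strain.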

[2] = system: Escherichia coli (E. coli) BAS849; experiment: as above; type: cell-based; conditions: microbroth dilution, super sensitive Gram-negative E. coli BAS849, read-out: MIC, BAS849
Summary of the method: as §1

E. coli LZ3111 = experiment: Antibacterial activity, MIC, quinolone resistant strain (Table 2); type: cell-based; conditions: Escherichia coli, LZ3111, read-out: MIC LZ3111
Summary of the method: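 Strain carries mutations conferring high-level quinolone resistance; tested by microbroth dilution, MIC recorded in μg/mL as lowest concentration preventing visible growth.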

Compound | MIC (E. coli 25922) [µg/mL] | MIC [1] [µg/mL] | MIC [2] [µg/mL] | MIC (E. coli LZ3111) [µg/mL]
CCc1c(-c2ccc3c(c2)cc(CN2CC(N(C)Cc4ccccc4)C2)n3C)[nH]c(=O)c(C(=O)O)c1O [Cpd 206, 6-(2-((3-(benzyl(methyl)amino)azetidin-1-yl)methyl)-1-methyl-1H-indol-5-yl)-5-ethyl-4-hydroxy-2-oxo-1,2-dihydropyridine-3-carboxylic acid] | 3.5 to 12.5 (≈ 6.99 to 25 µM) | 3.5 to 12.5 (≈ 6.99 to 25 µM) | < 1 | 12.5 to 150 (≈ 25 to 300 µM)
CCc1c(-c2ccc3c(c2)cc(CN2CCC(C(=O)N(C)C)C2)n3C)[nH]c(=O)c(C(=O)O)c1O (centres unmarked) [Cpd 191, 6-(2-((3-(dimethylcarbamoyl)pyrrolidin-1-yl)methyl)-1-methyl-1H-indol-5-yl)-5-ethyl-4-hydroxy-2-oxo-1,2-dihydropyridine-3-carboxylic acid] | 1 to 3.5 (≈ 2.14 to 7.5 µM) | 3.5 to 12.5 (≈ 7.5 to 26.8 µM) | < 1 | 12.5 to 150 (≈ 26.8 to 322 µM)
CCc1c(-c2ccc3c(c2)cc(CNCc2ccc(F)cc2)n3C)[nH]c(=O)c(C(=O)O)c1O [Cpd 292, 5-ethyl-6-(2-((4-fluorobenzylamino)methyl)-1-methyl-1H-indol-5-yl)-4-hydroxy-2-oxo-1,2-dihydropyridine-3-carboxylic acid] | 1 to 3.5 (≈ 2.22 to 7.79 µM) | 3.5 to 12.5 (≈ 7.79 to 27.8 µM) | < 1 | 12.5 to 150 (≈ 27.8 to 334 µM)
CCc1c(-c2ccc3c(c2)cc(CN2CCN(C(C)C)CC2)n3C)[nH]c(=O)c(C(=O)O)c1O [Cpd 174, 5-ethyl-4-hydroxy-6-(2-((4-isopropylpiperazin-1-yl)methyl)-1-methyl-1H-indol-5-yl)-2-oxo-1,2-dihydropyridine-3-carboxylic acid] | 1 to 3.5 (≈ 2.21 to 7.73 µM) | 3.5 to 12.5 (≈ 7.73 to 27.6 µM) | < 1 | 12.5 to 150 (≈ 27.6 to 331 µM)
CCc1c(-c2ccc3c(c2)cc(CN2CC(C(=O)O)C2)n3C)[nH]c(=O)c(C(=O)O)c1O [Cpd 269, 6-(2-((3-carboxyazetidin-1-yl)methyl)-1-methyl-1H-indol-5-yl)-5-ethyl-4-hydroxy-2-oxo-1,2-dihydropyridine-3-carboxylic acid] | 12.5 to 150 (≈ 29.4 to 353 µM) | 12.5 to 150 (≈ 29.4 to 353 µM) | 3.5 to 12.5 (≈ 8.23 to 29.4 µM) | 12.5 to 150 (≈ 29.4 to 353 µM)
CCc1cc(C(=O)O)c(=O)[nH]c1-c1ccc2nc(CN(C)C)cn2c1.Cl.Cl [Cpd 60, 6-(2-((dimethylamino)methyl)imidazo[1,2-a]pyridin-6-yl)-5-ethyl-2-oxo-1,2-dihydropyridine-3-carboxylic acid dihydrochloride] | 12.5 to 150 | 12.5 to 150 | 12.5 to 150 | 12.5 to 150
CCc1c(-c2ccc3c(c2)cc(CN[C@H](C)C(F)(F)F)n3C)[nH]c(=O)c(C(=O)O)c1O [Cpd 272, (R)-5-ethyl-4-hydroxy-6-(1-methyl-2-((1,1,1-trifluoropropan-2-ylamino)methyl)-1H-indol-5-yl)-2-oxo-1,2-dihydropyridine-3-carboxylic acid] | 12.5 to 150 (≈ 28.6 to 343 µM) | 1 to 3.5 (≈ 2.29 to 8 µM) | < 1 | 12.5 to 150 (≈ 28.6 to 343 µM)
CCc1cc(C(=O)O)c(=O)[nH]c1-c1cc(F)c2c(c1)cc(CN1CCCCC1)n2C [Cpd 102, 5-ethyl-6-(7-fluoro-1-methyl-2-(piperidin-1-ylmethyl)-1H-indol-5-yl)-2-oxo-1,2-dihydropyridine-3-carboxylic acid] | 3.5 to 12.5 (≈ 8.51 to 30.4 µM) | 12.5 to 150 (≈ 30.4 to 365 µM) | < 1 | 12.5 to 150 (≈ 30.4 to 365 µM)
CCc1c(-c2ccc3c(c2)cc(CN(C)CCN(C)C)n3C)[nH]c(=O)c(C(=O)O)c1O [Cpd 303, 6-(2-(((2-(dimethylamino)ethyl)(methyl)amino)methyl)-1-methyl-1H-indol-5-yl)-5-ethyl-4-hydroxy-2-oxo-1,2-dihydropyridine-3-carboxylic acid] | 3.5 to 12.5 (≈ 8.21 to 29.3 µM) | 12.5 to 150 (≈ 29.3 to 352 µM) | < 1 | 12.5 to 150 (≈ 29.3 to 352 µM)
CCc1c(-c2ccc3c(c2)cc(C(C)(C)N(C)C)n3C)[nH]c(=O)c(C(=O)O)c1O [Cpd 308, 6-(2-(2-(dimethylamino)propan-2-yl)-1-methyl-1H-indol-5-yl)-5-ethyl-4-hydroxy-2-oxo-1,2-dihydropyridine-3-carboxylic acid] | 12.5 to 150 (≈ 31.4 to 377 µM) | 1 to 3.5 (≈ 2.52 to 8.81 µM) | < 1 | 12.5 to 150 (≈ 31.4 to 377 µM)
CC(C)c1c(-c2ccc3c(c2)cc(CN2CCC2)n3C)[nH]c(=O)c(C(=O)O)c1O [Cpd 320, 6-(2-(azetidin-1-ylmethyl)-1-methyl-1H-indol-5-yl)-4-hydroxy-5-isopropyl-2-oxo-1,2-dihydropyridine-3-carboxylic acid] | 1 to 3.5 (≈ 2.53 to 8.85 µM) | 3.5 to 12.5 (≈ 8.85 to 31.6 µM) | < 1 | 12.5 to 150 (≈ 31.6 to 379 µM)
CCc1c(-c2ccc3c(c2)cc(CNC2CCNCC2)n3C)[nH]c(=O)c(C(=O)O)c1O [Cpd 263, 5-ethyl-4-hydroxy-6-(1-methyl-2-((piperidin-4-ylamino)methyl)-1H-indol-5-yl)-2-oxo-1,2-dihydropyridine-3-carboxylic acid] | 12.5 to 150 (≈ 29.4 to 353 µM) | 12.5 to 150 (≈ 29.4 to 353 µM) | 3.5 to 12.5 (≈ 8.24 to 29.4 µM) | 12.5 to 150 (≈ 29.4 to 353 µM)
CCc1c(-c2ccc3c(c2)cc(CN2C[C@H]4CC[C@@H](N(Cc5ccccc5)Cc5ccccc5)[C@H]4C2)n3C)[nH]c(=O)c(C(=O)O)c1O [Cpd 281, 6-(2-(((3aR,4R,6aS)-4-(dibenzylamino)hexahydrocyclopenta[c]pyrrol-2(1H)-yl)methyl)-1-methyl-1H-indol-5-yl)-5-ethyl-4-hydroxy-2-oxo-1,2-dihydropyridine-3-carboxylic acid] | 12.5 to 150 (≈ 19.8 to 238 µM) | 12.5 to 150 (≈ 19.8 to 238 µM) | 12.5 to 150 (≈ 19.8 to 238 µM) | 12.5 to 150 (≈ 19.8 to 238 µM)
CCc1c(-c2ccc3c(c2)cc(CN2C[C@@H]4[C@H](C2)[C@H]4N(C)C)n3C)[nH]c(=O)c(C(=O)O)c1O [Cpd 197, 6-(2-(((1R,5S,6s)-6-(dimethylamino)-3-azabicyclo[3.1.0]hexan-3-yl)methyl)-1-methyl-1H-indol-5-yl)-5-ethyl-4-hydroxy-2-oxo-1,2-dihydropyridine-3-carboxylic acid] | 1 to 3.5 (≈ 2.22 to 7.77 µM) | 3.5 to 12.5 (≈ 7.77 to 27.7 µM) | < 1 | 12.5 to 150 (≈ 27.7 to 333 µM)
CCc1cc(C(=O)O)c(=O)[nH]c1-c1ccc2c(c1)cc1n2CCC1N1CCCC1 (centres unmarked) [Cpd 151, 5-ethyl-2-oxo-6-(1-(pyrrolidin-1-yl)-2,3-dihydro-1H-pyrrolo[1,2-a]indol-7-yl)-1,2-dihydropyridine-3-carboxylic acid] | 1 to 3.5 (≈ 2.55 to 8.94 µM) | 12.5 to 150 (≈ 31.9 to 383 µM) | < 1 | 12.5 to 150 (≈ 31.9 to 383 µM)
CCc1c(-c2ccc3c(c2)cc(CNc2ccccc2)n3C)[nH]c(=O)c(C(=O)O)c1O [Cpd 213, 5-ethyl-4-hydroxy-6-(1-methyl-2-((phenylamino)methyl)-1H-indol-5-yl)-2-oxo-1,2-dihydropyridine-3-carboxylic acid] | 12.5 to 150 (≈ 29.9 to 359 µM) | 1 to 3.5 (≈ 2.4 to 8.38 µM) | < 1 | 12.5 to 150 (≈ 29.9 to 359 µM)
CCc1c(-c2ccc3c(c2)cc(CN(C)Cc2cccnc2)n3C)[nH]c(=O)c(C(=O)O)c1O.Cl [Cpd 224, 5-ethyl-4-hydroxy-6-(1-methyl-2-((methyl(pyridin-3-ylmethyl)amino)methyl)-1H-indol-5-yl)-2-oxo-1,2-dihydropyridine-3-carboxylic acid hydrochloride] | 1 to 3.5 | 3.5 to 12.5 | < 1 | 12.5 to 150
CCc1cc(C(=O)O)c(=O)[nH]c1-c1ccc2c(c1)cc(C(C)(C)N(C)C)n2C [Cpd 87, 6-(2-(2-(dimethylamino)propan-2-yl)-1-methyl-1H-indol-5-yl)-5-ethyl-2-oxo-1,2-dihydropyridine-3-carboxylic acid] | 3.5 to 12.5 (≈ 9.17 to 32.8 µM) | 12.5 to 150 (≈ 32.8 to 393 µM) | < 1 | 12.5 to 150 (≈ 32.8 to 393 µM)
CCc1c(-c2ccc3c(c2)cc(CN2C[C@H]4CCC[C@@H](N(Cc5ccccc5)Cc5ccccc5)[C@H]4C2)n3C)[nH]c(=O)c(C(=O)O)c1O [Cpd 283, 6-(2-(((3aR,4R,7aS)-4-(dibenzylamino)-1H-isoindol-2(3H,3aH,4H,5H,6H,7H,7aH)-yl)methyl)-1-methyl-1H-indol-5-yl)-5-ethyl-4-hydroxy-2-oxo-1,2-dihydropyridine-3-carboxylic acid] | 12.5 to 150 (≈ 19.4 to 233 µM) | 12.5 to 150 (≈ 19.4 to 233 µM) | 12.5 to 150 (≈ 19.4 to 233 µM) | 12.5 to 150 (≈ 19.4 to 233 µM)
CCc1cc(C(=O)O)c(=O)[nH]c1-c1ccc2c(c1)cc(CN1C[C@H]3CCC[C@@H](N(C)Cc4ccccc4)[C@H]3C1)n2C [Cpd 146, 6-(2-(((3aR,4R,7aS)-4-(benzyl(methyl)amino)-1H-isoindol-2(3H,3aH,4H,5H,6H,7H,7aH)-yl)methyl)-1-methyl-1H-indol-5-yl)-5-ethyl-2-oxo-1,2-dihydropyridine-3-carboxylic acid] | 1 to 3.5 (≈ 1.81 to 6.33 µM) | 12.5 to 150 (≈ 22.6 to 271 µM) | < 1 | 12.5 to 150 (≈ 22.6 to 271 µM)
CCc1cc(C(=O)O)c(=O)[nH]c1-c1ccc2nccnc2c1 [Cpd 57, 5-ethyl-2-oxo-6-(quinoxalin-6-yl)-1,2-dihydropyridine-3-carboxylic acid] | 12.5 to 150 (≈ 42.3 to 508 µM) | 12.5 to 150 (≈ 42.3 to 508 µM) | 12.5 to 150 (≈ 42.3 to 508 µM) | 12.5 to 150 (≈ 42.3 to 508 µM)
CCc1c(-c2ccc3c(c2)cc(CN[C@H](C)c2ccccc2)n3C)[nH]c(=O)c(C(=O)O)c1O.Cl [Cpd 215, (R)-5-ethyl-4-hydroxy-6-(1-methyl-2-((1-phenylethylamino)methyl)-1H-indol-5-yl)-2-oxo-1,2-dihydropyridine-3-carboxylic acid hydrochloride] | 1 to 3.5 | 1 to 3.5 | < 1 | 12.5 to 150
CCc1c(-c2ccc3c(c2)cc(CN(C)C2CC2)n3C)[nH]c(=O)c(C(=O)O)c1O.Cl [Cpd 212, 6-(2-((cyclopropyl(methyl)amino)methyl)-1-methyl-1H-indol-5-yl)-5-ethyl-4-hydroxy-2-oxo-1,2-dihydropyridine-3-carboxylic acid hydrochloride] | 1 to 3.5 | 1 to 3.5 | < 1 | 12.5 to 150

Reference: patent US9409905B2, “Antibacterial compounds and methods for use” (PTC THERAPEUTICS, INC., priority 2011, dated 2016)
